Experimental data published in patent US20250154127A1, “BICYCLIC HETEROARYL COMPOUNDS AND USES THEREOF” (ETERN BIOPHARMA (SHANGHAI) CO., LTD., priority 2022, published 2025).

Tests used:
[1] = target: TEAD1(210-426) binding to YAP(50-100) (Homo sapiens, UniProt P28347); assay: TR-FRET Assay for TEAD1(210-426) Binding to YAP(50-100); conditions: His-TEAD 10 nM, YAP-Biotin peptide 50 nM
Procedure: Compounds were performed 3 fold serial dilution, 12 data points, added to 384 well white plate. The final DMSO concentration is 1%, duplicate for each concentration. Then His-TEAD protein was added to a final concentration of 10 nM, and allowed to preincubate for 30 minutes at room temperature. Assay buffer was added as background control.
YAP-Biotin peptide was added to a final concentration of 50 nM, mixed well, incubate 10 minutes at room temperature. The YAP(50-100) peptide sequence used here is named SEQ ID NO: 2
The Europium-labeled anti-6×His antibody and APC labeled streptavidin were diluted according to the instructions, this detection solution was mixed 1:1 with reaction solution, incubated 1 hour at room temperature.
TR-FRET measurements were made on an Envision (Perkin Elmer), using an excitation wavelength of 320 nm and emissions read at 620 nm and 665 nm. The ratio of the 665 nm to the 620 nm multiply 10000 provides a normalized TR-FRET signal that represents the extent of binding.
Half inhibition concentration IC50 value was calculated by XLfit software.

MSTO-211H cells = assay: Proliferation Assay (CellTiter-Glo Luminescent Cell Viability Assay); format: cell-based; conditions: Homo sapiens, 96 hours treatment
Procedure: Example 5: Proliferation Assay
The effect of compound on YAP driven cancer cells proliferation was assessed in MSTO-211H (ATCC, CRL-2081TM) or NCI-H2052 (ATCC, CRL-5915TM) cells using CellTiter-Glo Luminescent Cell Viability Assay (Promega, G7570).
Briefly, individual cell lines were seeded in 96-well cell culture plate at the density of 1,500 cells per well and cultured in RPMII1640 (Gibco-A10491-01)+10% FBS (Gibco-10099-141C)+1% Penicillin-Streptomycin (5,000 U/mL, Gibco-15070-063) overnight at 37° C. with 5% CO2 before adding the compounds.
Following incubation, serial dilutions of compounds dissolved in DMSO were added to each well (3-fold dilution with 9 concentration points). The final concentration of DMSO present in this assay is below 0.5% and make duplication for each compound treated well.
Following 96 hours treatment, compound mediated cell growth inhibition was measured using CellTiter-Go Luminescent Cell Viability Assay (Promega, G7570). […] CellTiter-Glo in each assay well, mix and incubate at room temperature for 10 min. Read signal using EnVision® Multilabel Plate Reader (Perkin Elmer).
For data analysis, cell proliferation inhibition was calculated using the following formula:
Inhibition %=(1−(Compound treated well CTG signal/DMSO well CTG signal))*100.
IC50 values were calculated using GraphPad Prism software using a four-parameter fit model.

Chain of TEAD1(210-426) binding to YAP(50-100) (P28347 209-426): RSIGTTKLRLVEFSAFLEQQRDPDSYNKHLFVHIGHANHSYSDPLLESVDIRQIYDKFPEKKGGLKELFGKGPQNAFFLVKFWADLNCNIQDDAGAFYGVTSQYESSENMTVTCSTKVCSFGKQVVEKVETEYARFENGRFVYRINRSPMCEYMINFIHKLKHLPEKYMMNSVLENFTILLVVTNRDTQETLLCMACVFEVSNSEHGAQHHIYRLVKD

Work on `O=c1cc(-c2nn(-c3ccc(C(F)(F)F)cc3)c3ccccc23)ccn1Cc1ccncc1` [Compound 19, 1-(pyridin-4-ylmethyl)-4-(1-(4-(trifluoromethyl)phenyl)-1H-indazol-3-yl)pyridin-2(1H)-one] yielded an IC50 [1] of no more than 100 nM and an IC50 (MSTO-211H cells) of no more than 1000 nM.
In the case of `C[C@@H](c1ccccn1)n1ccc(-c2nn(-c3ccc(C(F)(F)F)cc3)c3ncccc23)cc1=O` [Compound 20, (S)-1-(1-(pyridin-2-yl)ethyl)-4-(1-(4-(trifluoromethyl)phenyl)-1H-pyrazolo[3,4-b]pyridin-3-yl)pyridin-2(1H)-one], the IC50 [1] is reported as no more than 100 nM and the IC50 (MSTO-211H cells) is reported as no more than 1000 nM.
With `C[C@@H](c1ccccn1)n1ccc(-c2nn(-c3ccc(C(F)(F)F)cc3)c3ccc(CO)cc23)cc1=O` [Compound 24] the IC50 [1] was no more than 100 nM and the IC50 (MSTO-211H cells) was no more than 1000 nM.
In the case of `C[C@@H](c1ccccn1)n1ccc(-c2nn(-c3ccc(C(F)(F)F)cc3)c3cc(CO)ccc23)cc1=O` [Compound 28, (S)-4-(6-(hydroxymethyl)-1-(4-(trifluoromethyl)phenyl)-1H-indazol-3-yl)-1-(1-(pyridin-2-yl)ethyl)pyridin-2(1H)-one], the IC50 [1] is reported as no more than 100 nM and the IC50 (MSTO-211H cells) is reported as no more than 1000 nM.
`C[C@@H](c1ccccn1)n1ccc(-c2nn(-c3ccc(C(F)(F)F)cc3)c3cc(C(=O)O)ccc23)cc1=O` [Compound 29, (S)-3-(2-oxo-1-(1-(pyridin-2-yl)ethyl)-1,2-dihydropyridin-4-yl)-1-(4-(trifluoromethyl)phenyl)-1H-indazole-6-carboxylic acid] gave an IC50 [1] greater than 1000 nM and an IC50 (MSTO-211H cells) of no more than 1000 nM.
In the case of `C[C@@H](c1ccccn1)n1ccc(-c2nn(-c3ccc(C(F)(F)F)cc3)c3cc(C(N)=O)ccc23)cc1=O` [Compound 30, (S)-3-(2-oxo-1-(1-(pyridin-2-yl)ethyl)-1,2-dihydropyridin-4-yl)-1-(4-(trifluoromethyl)phenyl)-1H-indazole-6-carboxamide], the IC50 [1] is reported as greater than 1000 nM and the IC50 (MSTO-211H cells) is reported as no more than 1000 nM.
With `C[C@@H](c1ccccn1)n1ccc(-c2nn(-c3ccc(C(F)(F)F)cc3)c3cc(C#N)ccc23)cc1=O` [Compound 31, (S)-3-(2-oxo-1-(1-(pyridin-2-yl)ethyl)-1,2-dihydropyridin-4-yl)-1-(4-(trifluoromethyl)phenyl)-1H-indazole-6-carbonitrile] the IC50 [1] was greater than 1000 nM and the IC50 (MSTO-211H cells) was no more than 1000 nM.
Work on `C[C@@H](c1ccccn1)n1ccc(-c2nn(-c3ccc(C(F)(F)F)cc3)c3ccc(F)cc23)cc1=O` [Compound 33, (S)-4-(5-fluoro-1-(4-(trifluoromethyl)phenyl)-1H-indazol-3-yl)-1-(1-(pyridin-2-yl)ethyl)pyridin-2(1H)-one] yielded an IC50 [1] of no more than 100 nM and an IC50 (MSTO-211H cells) of no more than 1000 nM.
For `COc1ccc2c(c1)c(-c1ccn([C@@H](C)c3ccccn3)c(=O)c1)nn2-c1ccc(C(F)(F)F)cc1` [Compound 34, (S)-4-(5-methoxy-1-(4-(trifluoromethyl)phenyl)-1H-indazol-3-yl)-1-(1-(pyridin-2-yl)ethyl)pyridin-2(1H)-one], the IC50 [1] was no more than 100 nM and the IC50 (MSTO-211H cells) was no more than 1000 nM.
Work on `Cn1nccc1Cn1ccc(-c2nn(-c3ccc(C(F)(F)F)cc3)c3ccccc23)cc1=O` [Compound 37, 1-((1-methyl-1 H-pyrazol-5-yl)methyl)-4-(1-(4-(trifluoromethyl)phenyl)-1H-indazol-3-yl)pyridin-2(1H)-one] yielded an IC50 [1] of no more than 100 nM and an IC50 (MSTO-211H cells) of no more than 1000 nM.
`Cn1ccc(Cn2ccc(-c3nn(-c4ccc(C(F)(F)F)cc4)c4ccccc34)cc2=O)n1` [Compound 38, 1-((1-methyl-1H-pyrazol-3-yl)methyl)-4-(1-(4-(trifluoromethyl)phenyl)-1H-indazol-3-yl)pyridin-2(1H)-one] gave an IC50 [1] of no more than 100 nM and an IC50 (MSTO-211H cells) of no more than 1000 nM.
Compound `Cn1cncc1Cn1ccc(-c2nn(-c3ccc(C(F)(F)F)cc3)c3ccccc23)cc1=O` [Compound 39, 1-((1-methyl-1H-imidazol-5-yl)methyl)-4-(1-(4-(trifluoromethyl)phenyl)-1H-indazol-3-yl)pyridin-2(1H)-one] has an IC50 [1] greater than 1000 nM and an IC50 (MSTO-211H cells) of no more than 1000 nM.
Compound `C[C@@H](c1ccccn1)n1ccc(-c2nn(-c3ccc(C(F)(F)F)nc3)c3cccnc23)cc1=O` [Compound 40, (S)-1-(1-(pyridin-2-yl)ethyl)-4-(1-(6-(trifluoromethyl)pyridin-3-yl)-1H-pyrazolo[4,3-b]pyridin-3-yl)pyridin-2(1H)-one] has an IC50 [1] greater than 1000 nM and an IC50 (MSTO-211H cells) of no more than 1000 nM.
Work on `Cn1ccc(Cn2ccc(-n3nc(-c4ccc(C(F)(F)F)cc4)c4ncccc43)cc2=O)n1` [Compound 41, 1-((1-methyl-1H-pyrazol-3-yl)methyl)-4-(3-(4-(trifluoromethyl)phenyl)-1H-pyrazolo[4,3-b]pyridin-1-yl)pyridin-2(1H)-one] yielded an IC50 [1] of no more than 100 nM and an IC50 (MSTO-211H cells) of no more than 1000 nM.
In the case of `CNc1nccc(Cn2ccc(-n3nc(-c4ccc(C(F)(F)F)cc4)c4ncccc43)cc2=O)n1` [Compound 42, 1-((2-(methylamino)pyrimidin-4-yl)methyl)-4-(3-(4-(trifluoromethyl)phenyl)-1H-pyrazolo[4,3-b]pyridin-1-yl)pyridin-2(1H)-one], the IC50 [1] is reported as no more than 100 nM and the IC50 (MSTO-211H cells) is reported as no more than 1000 nM.
Work on `Cn1ccnc1Cn1ccc(-n2nc(-c3ccc(C(F)(F)F)cc3)c3ncccc32)cc1=O` [Compound 43, 1-((1-methyl-1H-imidazol-2-yl)methyl)-4-(3-(4-(trifluoromethyl)phenyl)-1H-pyrazolo[4,3-b]pyridin-1-yl)pyridin-2(1H)-one] yielded an IC50 [1] of 100 to 1000 nM and an IC50 (MSTO-211H cells) of no more than 1000 nM.
`O=c1cc(-c2nn(-c3ccc(C(F)(F)F)cc3)c3ncccc23)ccn1Cc1ccnc(NC2CC2)n1` [Compound 44, 1-((2-(cyclopropylamino)pyrimidin-4-yl)methyl)-4-(1-(4-(trifluoromethyl)phenyl)-1H-pyrazolo[3,4-b]pyridin-3-yl)pyridin-2(1H)-one] showed an IC50 [1] of no more than 100 nM and an IC50 (MSTO-211H cells) of no more than 1000 nM.
`O=c1cc(-n2nc(-c3ccc(C(F)(F)F)cc3)c3ncccc32)ccn1Cc1ccn(CCO)n1` [Compound 45] showed an IC50 [1] of no more than 100 nM and an IC50 (MSTO-211H cells) of no more than 1000 nM.
For `O=c1cc(-n2nc(-c3ccc(C(F)(F)F)cc3)c3ncccc32)ccn1Cc1ccnc(NCCO)n1` [Compound 46, 1-((2-((2-hydroxyethyl)amino)pyrimidin-4-yl)methyl)-4-(3-(4-(trifluoromethyl)phenyl)-1H-pyrazolo[4,3-b]pyridin-1-yl)pyridin-2(1H)-one], the IC50 [1] was no more than 100 nM and the IC50 (MSTO-211H cells) was no more than 1000 nM.
Work on `CN(CCO)c1nccc(Cn2ccc(-n3nc(-c4ccc(C(F)(F)F)cc4)c4ncccc43)cc2=O)n1` [Compound 47, 1-((2-((2-hydroxyethyl)(methyl)amino)pyrimidin-4-yl)methyl)-4-(3-(4-(trifluoromethyl)phenyl)-1H-pyrazolo[4,3-b]pyridin-1-yl)pyridin-2(1H)-one] yielded an IC50 [1] of no more than 100 nM and an IC50 (MSTO-211H cells) of no more than 1000 nM.
For `CNc1ccnc(Cn2ccc(-n3nc(-c4ccc(C(F)(F)F)cc4)c4ncccc43)cc2=O)n1` [Compound 48, 1-((4-(methylamino)pyrimidin-2-yl)methyl)-4-(3-(4-(trifluoromethyl)phenyl)-1H-pyrazolo[4,3-b]pyridin-1-yl)pyridin-2(1H)-one], the IC50 [1] was no more than 100 nM and the IC50 (MSTO-211H cells) was no more than 1000 nM.
`CNc1ccnc(Cn2ccc(-n3nc(-c4ccc(C(F)(F)F)cc4)c4nccnc43)cc2=O)n1` [Compound 49, 1-((4-(methylamino)pyrimidin-2-yl)methyl)-4-(3-(4-(trifluoromethyl)phenyl)-1H-pyrazolo[3,4-b]pyrazin-1-yl)pyridin-2(1H)-one] was tested, and the IC50 [1] was no more than 100 nM and the IC50 (MSTO-211H cells) was no more than 1000 nM.
In the case of `O=c1cc(-n2nc(-c3ccc(C(F)(F)F)cc3)c3nccnc32)ccn1Cc1ccnc(NCCO)n1` [Compound 50, 1-((2-((2-hydroxyethyl)amino)pyrimidin-4-yl)methyl)-4-(3-(4-(trifluoromethyl)phenyl)-1H-pyrazolo[3,4-b]pyrazin-1-yl)pyridin-2(1H)-one], the IC50 [1] is reported as no more than 100 nM and the IC50 (MSTO-211H cells) is reported as no more than 1000 nM.
With `CNc1nccc(Cn2ccc(-n3nc(-c4ccc(C(F)(F)F)cc4)c4nccnc43)cc2=O)n1` [Compound 51, 1-((2-(methylamino)pyrimidin-4-yl)methyl)-4-(3-(4-(trifluoromethyl)phenyl)-1H-pyrazolo[3,4-b]pyrazin-1-yl)pyridin-2(1H)-one] the IC50 [1] was no more than 100 nM and the IC50 (MSTO-211H cells) was no more than 1000 nM.
For `CN(CCO)c1nccc(Cn2ccc(-n3nc(-c4ccc(C(F)(F)F)cc4)c4nccnc43)cc2=O)n1` [Compound 52, 1-((2-((2-hydroxyethyl)(methyl)amino)pyrimidin-4-yl)methyl)-4-(3-(4-(trifluoromethyl)phenyl)-1H-pyrazolo[3,4-b]pyrazin-1-yl)pyridin-2(1H)-one], the IC50 [1] was no more than 100 nM and the IC50 (MSTO-211H cells) was no more than 1000 nM.
